The record followed here is US20230167073A1 (Teijin Pharma Limited, priority 2020, published 2023).

Some results are limits rather than exact numbers.

The experiment has as its target T1, Human TRPC6 (Homo sapiens, UniProt Q9Y210).
T1 construct: expressed in transfected cells
T1 sequence (Q9Y210 1-931): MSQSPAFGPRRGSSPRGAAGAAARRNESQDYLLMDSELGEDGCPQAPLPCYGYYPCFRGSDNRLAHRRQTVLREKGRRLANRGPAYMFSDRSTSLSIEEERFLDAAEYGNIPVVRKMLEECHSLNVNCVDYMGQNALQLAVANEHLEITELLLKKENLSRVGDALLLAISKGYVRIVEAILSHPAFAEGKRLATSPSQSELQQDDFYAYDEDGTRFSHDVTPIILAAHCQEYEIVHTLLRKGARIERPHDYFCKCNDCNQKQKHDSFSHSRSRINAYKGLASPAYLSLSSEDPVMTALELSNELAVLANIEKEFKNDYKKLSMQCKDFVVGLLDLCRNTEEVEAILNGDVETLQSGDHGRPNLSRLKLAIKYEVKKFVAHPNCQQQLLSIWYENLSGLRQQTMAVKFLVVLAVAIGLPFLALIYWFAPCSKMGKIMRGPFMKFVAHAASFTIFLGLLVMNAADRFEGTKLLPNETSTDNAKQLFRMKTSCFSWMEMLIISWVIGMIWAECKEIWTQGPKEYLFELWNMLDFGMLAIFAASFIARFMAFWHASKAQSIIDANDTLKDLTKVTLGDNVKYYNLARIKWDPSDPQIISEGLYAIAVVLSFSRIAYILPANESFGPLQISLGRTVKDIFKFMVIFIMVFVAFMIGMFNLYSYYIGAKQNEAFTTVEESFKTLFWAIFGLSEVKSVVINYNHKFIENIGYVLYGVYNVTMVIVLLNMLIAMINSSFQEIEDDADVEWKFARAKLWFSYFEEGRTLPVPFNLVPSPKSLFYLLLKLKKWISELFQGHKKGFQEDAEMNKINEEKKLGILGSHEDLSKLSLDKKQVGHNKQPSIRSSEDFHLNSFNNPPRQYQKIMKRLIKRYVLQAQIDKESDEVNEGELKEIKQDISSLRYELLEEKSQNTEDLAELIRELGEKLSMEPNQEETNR
Nature of the experiment: Evaluation of TRPC6 channel inhibitory activity (1), FLIPR Calcium 5 Assay Kit, OAG stimulation (Compound Nos. 1-1293). As to conditions: Human TRPC6 stably-expressing cells, OAG 30 μM, FLIPR Calcium 5 Assay Kit; read-out: Inhibitory activity (pIC50 class) (converted). Format: cell-based. Summed up:
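Cells stably expressing human TRPC6, plated 24 h before, were loaded 30 min with Calcium 5 dye plus probenecid in HEPES-HBSS. Compound was added 20 min before OAG (30 μM final) and fluorescence tracked on FLIPR. Inhibition normalised to no-compound and no-compound/no-OAG wells; pIC50 from four-parameter fit, reported as +/++/+++ categories.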
Regarding `Cc1nc(Oc2cc(C#N)ccc2-c2ccc(C(=O)CN)cc2)cc(N2CCOCC2)n1` [Compound 8, 4-[4-(2-aminoacetyl)phenyl]-3-(2-methyl-6-morpholin-4-ylpyrimidin-4-yl)oxybenzonitrile], the IC50 is greater than 1000 nM.

On to `Cc1nc(Oc2cc(C#N)ccc2-c2ccc(CCN)cc2)cc(-c2ccccc2C(F)(F)F)n1` [Compound 23, 4-[4-(2-aminoethyl)phenyl]-3-[2-methyl-6-[2-(trifluoromethyl)phenyl]pyrimidin-4-yl]oxybenzonitrile], for which the IC50 was 10 to 1000 nM.

`Cc1ccnc(-c2cc(Oc3cc(C#N)ccc3-c3ncc(CN)cn3)n(C)n2)c1` [compound 652, 4-[5-(aminomethyl)pyrimidin-2-yl]-3-[2-methyl-5-(4-methylpyridin-2-yl)pyrazol-3-yl]oxybenzonitrile]: the IC50 was less than 10 nM.

With `Cc1cc(Oc2cc(C#N)ccc2-c2ccc([C@H](O)CN)cn2)cc(OC2COC2)n1` [compound 591, 4-[5-[(1S)-2-amino-1-hydroxyethyl]pyridin-2-yl]-3-[2-methyl-6-(oxetan-3-yloxy)pyridin-4-yl]oxybenzonitrile], the IC50 is greater than 1000 nM.

Regarding `Cc1nc(Oc2cc(C#N)ccc2-n2cc(CN)cn2)cc(N2CCOCC2)n1` [compound 298, 4-[4-(aminomethyl)pyrazol-1-yl]-3-(2-methyl-6-morpholin-4-ylpyrimidin-4-yl)oxybenzonitrile], the IC50 was 10 to 1000 nM.

Consider `CCNc1cc(Oc2cc(C#N)ccc2-c2ncc(CN)cn2)cc(C)n1` [compound 643, 4-[5-(aminomethyl)pyrimidin-2-yl]-3-[2-(ethylamino)-6-methylpyridin-4-yl]oxybenzonitrile], for which the IC50 is 10 to 1000 nM.

For the compound `Cc1nc(Oc2cc(C#N)ccc2-c2ccc([C@H](O)CN)cn2)cc(-c2ccccn2)n1` [compound 604, 4-[5-[(1S)-2-amino-1-hydroxyethyl]pyridin-2-yl]-3-(2-methyl-6-pyridin-2-ylpyrimidin-4-yl)oxybenzonitrile], the IC50 was less than 10 nM.

For `Cc1cc(Oc2cc(C#N)ccc2-c2ncc([C@H](O)CN)cn2)cc(N2CCCCC2)n1` [compound 501, 4-[5-[(1S)-2-amino-1-hydroxyethyl]pyrimidin-2-yl]-3-(2-methyl-6-piperidin-1-ylpyridin-4-yl)oxybenzonitrile], the IC50 was less than 10 nM.

As for `Cc1nc(Oc2cc(C#N)ccc2-n2cc(C(O)C(C)(C)N)cn2)cc(N2CCOCC2)n1` (stereo not drawn) [compound 302, 4-[4-(2-amino-1-hydroxy-2-methylpropyl)pyrazol-1-yl]-3-(2-methyl-6-morpholin-4-ylpyrimidin-4-yl)oxybenzonitrile], the IC50 is 10 to 1000 nM.

In the case of `Cc1c(Oc2cc(C#N)ccc2-c2ncc(CCN)cn2)cnn1-c1ccccn1` [compound 830, 4-[5-(2-aminoethyl)pyrimidin-2-yl]-3-(5-methyl-1-pyridin-2-ylpyrazol-4-yl)oxybenzonitrile], the IC50 was 10 to 1000 nM.

For the compound `Cc1nc(Oc2cc(C#N)ccc2-c2nc(C(O)CN(C)C)c(C)n2C)cc(-c2ccccc2)n1` (stereo not drawn) [Compound 99, 4-[4-[2-(dimethylamino)-1-hydroxyethyl]-1,5-dimethylimidazol-2-yl]-3-(2-methyl-6-phenylpyrimidin-4-yl)oxybenzonitrile], the IC50 was greater than 1000 nM.

Turning to `CCCCc1cc(Oc2cc(C#N)ccc2-c2ncc(C(O)CN)cn2)n(C)n1` (stereo not drawn) [compound 337, 4-[5-(2-amino-1-hydroxyethyl)pyrimidin-2-yl]-3-(5-butyl-2-methylpyrazol-3-yl)oxybenzonitrile], the IC50 is less than 10 nM.

On to `Cc1cc(Oc2cc(C#N)ccc2-c2ncc(CCN)cn2)cc(N2CCOC[C@H]2C)n1` [compound 470, 4-[5-(2-aminoethyl)pyrimidin-2-yl]-3-[2-methyl-6-[(3R)-3-methylmorpholin-4-yl]pyridin-4-yl]oxybenzonitrile], for which the IC50 was less than 10 nM.

As to `N#Cc1ccc(-c2ncc(CCN)cn2)c(C(=O)c2cnc(N3CCOCC3)o2)c1` [compound 1084, 4-[5-(2-aminoethyl)pyrimidin-2-yl]-3-(2-morpholin-4-yl-1,3-oxazole-5-carbonyl)benzonitrile], the IC50 is 10 to 1000 nM.

Take `Cn1nc(C2CC2)cc1Oc1cc(C#N)ccc1-c1cc(NCCCO)ccn1` [compound 586, 3-(5-cyclopropyl-2-methylpyrazol-3-yl)oxy-4-[4-(3-hydroxypropylamino)pyridin-2-yl]benzonitrile]: the IC50 is greater than 1000 nM.

As for `Cc1cc(Oc2cc(C#N)ccc2-c2ccc([C@H](O)CN)cn2)cc(C2CCOCC2)n1` [compound 580, 4-[5-[(1S)-2-amino-1-hydroxyethyl]pyridin-2-yl]-3-[2-methyl-6-(oxan-4-yl)pyridin-4-yl]oxybenzonitrile], the IC50 was 10 to 1000 nM.

`Cc1cc(Oc2cc(C#N)ccc2-c2ccc(N3CC(N)CC3=O)cn2)cc(N2CCOCC2)n1` (stereo not drawn) [compound 568, 4-[5-(4-amino-2-oxopyrrolidin-1-yl)pyridin-2-yl]-3-(2-methyl-6-morpholin-4-ylpyridin-4-yl)oxybenzonitrile]: the IC50 is greater than 1000 nM.

On to `Cc1cc(Oc2cc(F)ccc2-c2ncc(CCN)cn2)cc(N2CCOCC2)n1` [compound 978, 2-[2-[4-fluoro-2-(2-methyl-6-morpholin-4-ylpyridin-4-yl)oxyphenyl]pyrimidin-5-yl]ethanamine], for which the IC50 was less than 10 nM.

Regarding `Cc1nc(Nc2cc(C#N)ccc2-c2ccc(C(=O)CN)cc2)cc(N2CCOCC2)n1` [Compound 4, 4-[4-(2-Aminoacetyl)phenyl]-3-[(2-methyl-6-morpholin-4-ylpyrimidin-4-yl)amino]benzonitrile], the IC50 was greater than 1000 nM.

With `CCc1cc(Oc2cc(C#N)ccc2-c2ncc(CN)cn2)n(C)n1` [compound 324, 4-[5-(aminomethyl)pyrimidin-2-yl]-3-(5-ethyl-2-methylpyrazol-3-yl)oxybenzonitrile], the IC50 was less than 10 nM.

As to `Cc1nc(Oc2cc(C#N)ccc2-c2ccc(C(O)CN(C)C)cc2)cc(-c2ccccc2)n1` (stereo not drawn) [Compound 96, 4-[4-[2-(dimethylamino)-1-hydroxyethyl]phenyl]-3-(2-methyl-6-phenylpyrimidin-4-yl)oxybenzonitrile], the IC50 is greater than 1000 nM.

As to `N#Cc1ccc(-n2ccc(C(O)CN)n2)c(Oc2cnnc(-c3ccc[nH]3)c2)c1` (stereo not drawn) [Compound 196, 4-[3-(2-amino-1-hydroxyethyl)pyrazol-1-yl]-3-[6-(1H-pyrrol-2-yl)pyridazin-4-yl]oxybenzonitrile], the IC50 was 10 to 1000 nM.

Take `N#Cc1ccc(-c2ccc(CN)cn2)c(C(=O)c2cnc(N3CCOCC3)o2)c1` [compound 1085, 4-[5-(aminomethyl)pyridin-2-yl]-3-(2-morpholin-4-yl-1,3-oxazole-5-carbonyl)benzonitrile]: the IC50 is 10 to 1000 nM.

As for `Cc1nc(Oc2cc(C#N)ccc2-c2ccc(CCN)cn2)cc(-c2ccccc2)n1` [Compound 86, 4-[5-(2-aminoethyl)pyridin-2-yl]-3-(2-methyl-6-phenylpyrimidin-4-yl)oxybenzonitrile], the IC50 was 10 to 1000 nM.

Consider `Cc1nn(CC(F)(F)F)c(C)c1Oc1cc(C#N)ccc1-c1ncc(CCN)cn1` [compound 943, 4-[5-(2-aminoethyl)pyrimidin-2-yl]-3-[3,5-dimethyl-1-(2,2,2-trifluoroethyl)pyrazol-4-yl]oxybenzonitrile], for which the IC50 was greater than 1000 nM.

In the case of `Cn1nc(C2CCOC2)cc1Oc1cc(C#N)ccc1-c1ncc(CCN)cn1` (stereo not drawn) [compound 495, 4-[5-(2-aminoethyl)pyrimidin-2-yl]-3-[2-methyl-5-(oxolan-3-yl)pyrazol-3-yl]oxybenzonitrile], the IC50 was 10 to 1000 nM.

As to `Cc1nc(Oc2cc(C#N)ccc2-c2ncc(CN)cn2)cc(N2CCC2)n1` [compound 789, 4-[5-(aminomethyl)pyrimidin-2-yl]-3-[6-(azetidin-1-yl)-2-methylpyrimidin-4-yl]oxybenzonitrile], the IC50 is 10 to 1000 nM.

Take `Cc1cc(Oc2cc(C#N)ccc2-c2ncc(CN)cn2)cc(NC2CC2)n1` [compound 646, 4-[5-(aminomethyl)pyrimidin-2-yl]-3-[2-(cyclopropylamino)-6-methylpyridin-4-yl]oxybenzonitrile]: the IC50 is 10 to 1000 nM.

In the case of `Cn1nc(N2CCCCC2)cc1Cc1cc(C#N)ccc1-c1ccc(CCN)cn1` [compound 1219, 4-[5-(2-aminoethyl)pyridin-2-yl]-3-[(2-methyl-5-piperidin-1-ylpyrazol-3-yl)methyl]benzonitrile], the IC50 was less than 10 nM.

As for `Cc1cc(Oc2cc(C#N)ccc2-c2ncc(CCN)cn2)cc(-c2nccs2)n1` [compound 595, 4-[5-(2-aminoethyl)pyrimidin-2-yl]-3-[2-methyl-6-(1,3-thiazol-2-yl)pyridin-4-yl]oxybenzonitrile], the IC50 was 10 to 1000 nM.
